Assay results taken from patent publication US20050037423A1, “Isotopycally coded affinity marker 2” (Bayer Healthcare AG, priority 2001, published 2005).

Test: Solubility in water
Assay type: physicochemical

- solubility in water: completely soluble
Compound: O=C(CCN1C(=O)C=CC1=O)NCCCOCCOCCOCCCNC(=O)[C@H](Cc1c[nH]cn1)NC(=S)Nc1ccc(CNC(=O)CCCC[C@@H]2SC[C@@H]3NC(=O)N[C@@H]32)cc1 [Example 3]
